#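 Dose response: 5 concentrations. Exposure: 48 h. Format: 96-well plates. Endpoint: linear interpolation; highest concentration if not reached. GI50 = concentration required for 50% inhibition of growth. TGI marks complete inhibition of growth.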
# How the values were obtained:
# Assay in all cases: growth of human tumour cells (NCI), 48 h
# ACHN renal = test system: ACHN renal
# LOX IMVI melanoma = test system: LOX IMVI melanoma
# M14 melanoma = test system: M14 melanoma
# MOLT-4 leukemia = test system: MOLT-4 leukemia
# NCI-H226 lung = test system: NCI-H226 lung
# T-47D breast = test system: T-47D breast
# U251 CNS = test system: U251 CNS
# UACC-257 melanoma = test system: UACC-257 melanoma
# UO-31 renal = test system: UO-31 renal
# MDA-MB-231 breast = test system: MDA-MB-231 breast
Compound,GI50 (ACHN renal) [µM],TGI (ACHN renal) [µM],GI50 (LOX IMVI melanoma) [µM],TGI (LOX IMVI melanoma) [µM],GI50 (M14 melanoma) [µM],TGI (M14 melanoma) [µM],GI50 (MOLT-4 leukemia) [µM],TGI (MOLT-4 leukemia) [µM],GI50 (NCI-H226 lung) [µM],TGI (NCI-H226 lung) [µM],GI50 (T-47D breast) [µM],TGI (T-47D breast) [µM],GI50 (U251 CNS) [µM],TGI (U251 CNS) [µM],GI50 (UACC-257 melanoma) [µM],TGI (UACC-257 melanoma) [µM],GI50 (UO-31 renal) [µM],TGI (UO-31 renal) [µM],TGI (MDA-MB-231 breast) [µM],GI50 (MDA-MB-231 breast) [µM]
NC(=O)c1c(NC(=O)c2ccc(C(F)(F)F)cc2Cl)sc2c1CCC(=O)C2,0.322,1.04,0.383,1.83,0.355,1.89,0.361,> 100,1.34,5.85,0.238,4.73,0.27,1.75,0.654,3.46,0.237,0.809,–,–
CN(COC(=O)C(C)(C)C)c1nc(N(C)COC(=O)C(C)(C)C)nc(N(C)COC(=O)C(C)(C)C)n1,–,> 100,–,–,–,47.6,–,> 100,–,> 100,–,> 100,–,–,–,> 100,–,> 100,68.9,–
O=C1OC(=O)c2c1cc1cc3c(cc1c2-c1ccc2c(c1)OCO2)OCO3,–,> 100,–,–,–,> 100,–,> 100,–,> 100,–,> 100,–,> 100,–,> 100,–,> 100,> 100,–
C[C@H]1CCC/C=C/[C@@H]2C[C@H](O)C[C@H]2[C@H](O)C(O)C(O)C(=O)O1 (stereo partly drawn),3.43,20.9,–,–,3.61,> 100,0.906,4.56,0.189,0.399,5.96,> 100,3.51,> 100,1.1,> 100,3.44,> 76.1,4.84,2.5
COC(=O)c1cc2c3cc(Cl)ccc3[nH]c2c2ncccc12,> 100,> 100,> 100,> 100,–,–,> 100,> 100,> 100,> 100,24.7,> 100,> 100,> 100,> 100,> 100,> 100,> 100,> 100,> 100
CC(C)OC(=O)NNc1c(Cl)cc(Cl)cc1Cl,–,> 100,–,> 100,–,> 100,–,> 100,–,–,–,> 100,–,> 100,–,> 100,–,> 100,> 100,–
C(#Cc1ccccc1C#Cc1cnccn1)c1cnccn1,19.2,> 68.9,17.3,53.4,19.3,48.9,–,–,28.1,> 78.4,39.7,> 100,48,> 100,22.7,> 58.6,> 40.3,> 68.4,> 71.9,21.4
O=C(Nc1cccc2[nH]c(C(F)(F)F)nc12)c1ccc(Br)cc1F,3.08,11.1,3.78,12.5,3.83,14.5,3.83,23.3,2.97,12.8,2.26,7.49,–,–,2.35,6.67,1.98,7.36,6.19,2.17
CN(C)Cc1nsc(N(C)C)n1,–,> 100,–,> 100,–,> 100,–,–,–,> 100,–,> 100,–,> 100,–,> 100,–,> 100,> 100,–
CC(C)(C)c1ccc(OCCCCCCCN2CCNCC2)cc1,–,–,1.52,3.06,1.55,3.02,1.7,3.71,1.86,4.1,1.76,3.93,1.51,3.05,1.98,3.8,1.43,3.31,3.02,1.31
COc1cc(/C=C2\CC3C4CC=C5C[C@@H](N6CCCC6)CC[C@]5(C)C4CC[C@]3(C)[C@H]2OC(C)=O)ccc1OCCCn1ccnc1 (stereo partly drawn),0.383,1.09,–,–,0.304,0.752,0.206,> 15.4,10.3,21.9,2.19,> 50,0.0845,0.164,2.29,5.27,2.01,> 50,1.01,0.404
Cc1ccc(S(=O)(=O)NC(=O)Nc2ncn[nH]2)cc1,–,> 100,–,–,–,> 100,–,> 100,–,> 100,–,> 100,–,> 100,–,> 100,–,> 100,> 100,–
C=CCC(NCc1ccccc1)c1cn(C(=O)OCC)c2ccccc12 (stereo not drawn),18.5,36.5,17,30.9,18.6,39.2,10,38.1,–,–,33.3,> 100,19.2,39.3,23.8,49.5,30.4,> 100,44.1,18.2

# Source: PubChem BioAssay (NCI)
